≈ marks a conversion by molar mass, not a printed value.
Tests used:
Assay type in all cases: functional
Staphylococcus aureus [1] = assay: Antibacterial activity against […] Staphylococcus aureus ATCC 29213 after 24 to 48 hrs by agar dilution method
Staphylococcus aureus [2] = assay: Antibacterial activity against […] Staphylococcus aureus ATCC 33591 after 24 to 48 hrs by agar dilution method
Staphylococcus aureus [3] = assay: Antibacterial activity against Staphylococcus aureus CMCC (B) 26003 after 24 to 48 hrs by agar dilution method
Bacillus subtilis [4] = assay: Antibacterial activity against Bacillus subtilis CMCC (B) 63501 after 24 to 48 hrs by agar dilution method
Escherichia coli [5] = assay: Antibacterial activity against Escherichia coli CMCC (B) 44102 after 24 to 48 hrs by agar dilution method
Staphylococcus aureus [6] = assay: Antibacterial activity against […] Staphylococcus aureus ATCC 29213 at 320 ug/ml after 24 to 36 hrs by oxford cup assay; details: read-out: DIZ
Staphylococcus aureus [7] = assay: Antibacterial activity against […] Staphylococcus aureus ATCC 29213 at 160 ug/ml after 24 to 36 hrs by oxford cup assay; details: read-out: DIZ
Staphylococcus aureus [8] = assay: Antibacterial activity against […] Staphylococcus aureus ATCC 33591 at 320 ug/ml after 24 to 36 hrs by oxford cup assay; details: read-out: DIZ
Staphylococcus aureus [9] = assay: Antibacterial activity against […] Staphylococcus aureus ATCC 33591 at 160 ug/ml after 24 to 36 hrs by oxford cup assay; details: read-out: DIZ
Staphylococcus aureus [10] = assay: Antibacterial activity against Staphylococcus aureus CMCC (B) 26003 at 320 ug/ml after 24 to 36 hrs by oxford cup assay; details: read-out: DIZ
Staphylococcus aureus [11] = assay: Antibacterial activity against Staphylococcus aureus CMCC (B) 26003 at 160 ug/ml after 24 to 36 hrs by oxford cup assay; details: read-out: DIZ
Bacillus subtilis [12] = assay: Antibacterial activity against Bacillus subtilis CMCC (B) 63501 at 320 ug/ml after 24 to 36 hrs by oxford cup assay; details: read-out: DIZ
Bacillus subtilis [13] = assay: Antibacterial activity against Bacillus subtilis CMCC (B) 63501 at 160 ug/ml after 24 to 36 hrs by oxford cup assay; details: read-out: DIZ
Escherichia coli [14] = assay: Antibacterial activity against Escherichia coli CMCC (B) 44102 at 320 ug/ml after 24 to 36 hrs by oxford cup assay; details: read-out: DIZ
Escherichia coli [15] = assay: Antibacterial activity against Escherichia coli CMCC (B) 44102 at 160 ug/ml after 24 to 36 hrs by oxford cup assay; details: read-out: DIZ

C=C[C@]1(C)C[C@@H](OC(=O)CSc2nc(N)cc(NC(=O)CN(CC)CC)n2)[C@]2(C)[C@H](C)CC[C@]3(CCC(=O)[C@H]32)[C@@H](C)[C@@H]1O
MIC (Staphylococcus aureus [1]): 0.5 µg/mL (≈ 0.812 µM) | MIC (Staphylococcus aureus [2]): 0.25 µg/mL (≈ 0.406 µM) | MIC (Staphylococcus aureus [3]): 0.125 µg/mL (≈ 0.203 µM) | MIC (Bacillus subtilis [4]): 4 µg/mL (≈ 6.5 µM) | MIC (Escherichia coli [5]): 8 µg/mL (≈ 13 µM) | zone of inhibition at 320 µg/mL (Staphylococcus aureus [6]): 22.3 mm | zone of inhibition at 160 µg/mL (Staphylococcus aureus [7]): 16.4 mm | zone of inhibition at 320 µg/mL (Staphylococcus aureus [8]): 25.8 mm | zone of inhibition at 160 µg/mL (Staphylococcus aureus [9]): 19.9 mm | zone of inhibition at 320 µg/mL (Staphylococcus aureus [10]): 34.2 mm | zone of inhibition at 160 µg/mL (Staphylococcus aureus [11]): 23.6 mm | zone of inhibition at 320 µg/mL (Bacillus subtilis [12]): 15.7 mm | zone of inhibition at 160 µg/mL (Bacillus subtilis [13]): 13.4 mm | zone of inhibition at 320 µg/mL (Escherichia coli [14]): 12 mm | zone of inhibition at 160 µg/mL (Escherichia coli [15]): 10.1 mm

C=C[C@]1(C)C[C@@H](OC(=O)CSc2nc(N)cc(NC(=O)CN3CCCC3)n2)[C@]2(C)[C@H](C)CC[C@]3(CCC(=O)[C@H]32)[C@@H](C)[C@@H]1O
MIC (Staphylococcus aureus [1]): 0.5 µg/mL (≈ 0.815 µM) | MIC (Staphylococcus aureus [2]): 0.5 µg/mL (≈ 0.815 µM) | MIC (Staphylococcus aureus [3]): 0.125 µg/mL (≈ 0.204 µM) | MIC (Bacillus subtilis [4]): 2 µg/mL (≈ 3.26 µM) | MIC (Escherichia coli [5]): 4 µg/mL (≈ 6.52 µM) | zone of inhibition at 320 µg/mL (Staphylococcus aureus [6]): 26.5 mm | zone of inhibition at 160 µg/mL (Staphylococcus aureus [7]): 19.2 mm | zone of inhibition at 320 µg/mL (Staphylococcus aureus [8]): 24 mm | zone of inhibition at 160 µg/mL (Staphylococcus aureus [9]): 18.3 mm | zone of inhibition at 320 µg/mL (Staphylococcus aureus [10]): 30.4 mm | zone of inhibition at 160 µg/mL (Staphylococcus aureus [11]): 22.2 mm | zone of inhibition at 320 µg/mL (Bacillus subtilis [12]): 20 mm | zone of inhibition at 160 µg/mL (Bacillus subtilis [13]): 14.9 mm | zone of inhibition at 320 µg/mL (Escherichia coli [14]): 13.4 mm | zone of inhibition at 160 µg/mL (Escherichia coli [15]): 10.2 mm

C=C[C@]1(C)C[C@@H](OC(=O)CSc2nc(N)cc(NC(=O)CN3CC[C@H](O)C3)n2)[C@]2(C)[C@H](C)CC[C@]3(CCC(=O)[C@H]32)[C@@H](C)[C@@H]1O
MIC (Staphylococcus aureus [1]): 0.125 µg/mL (≈ 0.198 µM) | MIC (Staphylococcus aureus [2]): 0.25 µg/mL (≈ 0.397 µM) | MIC (Staphylococcus aureus [3]): 0.125 µg/mL (≈ 0.198 µM) | MIC (Bacillus subtilis [4]): 2 µg/mL (≈ 3.18 µM) | MIC (Escherichia coli [5]): 8 µg/mL (≈ 12.7 µM) | zone of inhibition at 320 µg/mL (Staphylococcus aureus [6]): 29.6 mm | zone of inhibition at 160 µg/mL (Staphylococcus aureus [7]): 22.1 mm | zone of inhibition at 320 µg/mL (Staphylococcus aureus [8]): 33.3 mm | zone of inhibition at 160 µg/mL (Staphylococcus aureus [9]): 22.7 mm | zone of inhibition at 320 µg/mL (Staphylococcus aureus [10]): 32.7 mm | zone of inhibition at 160 µg/mL (Staphylococcus aureus [11]): 22.1 mm | zone of inhibition at 320 µg/mL (Bacillus subtilis [12]): 15.8 mm | zone of inhibition at 160 µg/mL (Bacillus subtilis [13]): 13.6 mm | zone of inhibition at 320 µg/mL (Escherichia coli [14]): 10.5 mm | zone of inhibition at 160 µg/mL (Escherichia coli [15]): 8.86 mm

C=C[C@]1(C)C[C@@H](OC(=O)CSc2nc(N)cc(NC(=O)CN3CCCCC3)n2)[C@]2(C)[C@H](C)CC[C@]3(CCC(=O)[C@H]32)[C@@H](C)[C@@H]1O
MIC (Staphylococcus aureus [1]): 0.25 µg/mL (≈ 0.398 µM) | MIC (Staphylococcus aureus [2]): 0.5 µg/mL (≈ 0.796 µM) | MIC (Staphylococcus aureus [3]): 0.25 µg/mL (≈ 0.398 µM) | MIC (Bacillus subtilis [4]): 4 µg/mL (≈ 6.37 µM) | MIC (Escherichia coli [5]): 8 µg/mL (≈ 12.7 µM) | zone of inhibition at 320 µg/mL (Staphylococcus aureus [6]): 24.9 mm | zone of inhibition at 160 µg/mL (Staphylococcus aureus [7]): 18.2 mm | zone of inhibition at 320 µg/mL (Staphylococcus aureus [8]): 22.8 mm | zone of inhibition at 160 µg/mL (Staphylococcus aureus [9]): 17.9 mm | zone of inhibition at 320 µg/mL (Staphylococcus aureus [10]): 30.1 mm | zone of inhibition at 160 µg/mL (Staphylococcus aureus [11]): 23 mm | zone of inhibition at 320 µg/mL (Bacillus subtilis [12]): 19.6 mm | zone of inhibition at 160 µg/mL (Bacillus subtilis [13]): 15.2 mm | zone of inhibition at 320 µg/mL (Escherichia coli [14]): 10.3 mm | zone of inhibition at 160 µg/mL (Escherichia coli [15]): 8.89 mm

C=C[C@]1(C)C[C@@H](OC(=O)CSc2nc(N)cc(NC(=O)CN3CCOCC3)n2)[C@]2(C)[C@H](C)CC[C@]3(CCC(=O)[C@H]32)[C@@H](C)[C@@H]1O
MIC (Staphylococcus aureus [1]): 0.25 µg/mL (≈ 0.397 µM) | MIC (Staphylococcus aureus [2]): 1 µg/mL (≈ 1.59 µM) | MIC (Staphylococcus aureus [3]): 0.125 µg/mL (≈ 0.198 µM) | MIC (Bacillus subtilis [4]): 2 µg/mL (≈ 3.18 µM) | MIC (Escherichia coli [5]): 4 µg/mL (≈ 6.35 µM) | zone of inhibition at 320 µg/mL (Staphylococcus aureus [6]): 28 mm | zone of inhibition at 160 µg/mL (Staphylococcus aureus [7]): 20.2 mm | zone of inhibition at 320 µg/mL (Staphylococcus aureus [8]): 26.8 mm | zone of inhibition at 160 µg/mL (Staphylococcus aureus [9]): 17.9 mm | zone of inhibition at 320 µg/mL (Staphylococcus aureus [10]): 35.4 mm | zone of inhibition at 160 µg/mL (Staphylococcus aureus [11]): 24.7 mm | zone of inhibition at 320 µg/mL (Bacillus subtilis [12]): 19.6 mm | zone of inhibition at 160 µg/mL (Bacillus subtilis [13]): 14.2 mm | zone of inhibition at 320 µg/mL (Escherichia coli [14]): 11.9 mm | zone of inhibition at 160 µg/mL (Escherichia coli [15]): 9.82 mm

— ChEMBL document CHEMBL4002584, “Synthesis and antibacterial activities of novel pleuromutilin derivatives with a substituted pyrimidine moiety” (2017)
